Measured values taken from patent US20190031613A1, “COMPOUNDS AND METHODS FOR THEIR USE IN THE TREATMENT OF MALARIA” (University of South Florida, priority 2016, published 2019).
Converted amounts (≈) assume the structure as drawn. “Also recorded” adds a separate entry of the source.

Columns and labels:
P. berghei-GFP parasites = test: in vivo efficacy, modified Thompson test; parameters: species or system mice
Method: Prodrug 6d was orally tested for in vivo efficacy at four doses (0.3 mg/kg, 1.0 mg/kg, 3.0 mg/kg, and 10 mg/kg) in 0.5% aqueous HEC solution.

[1] = in vivo pharmacokinetics in mice (plasma, LC/MS-MS); details: mouse, in vivo, po
Method: Plasma exposure of prodrug 6e and parent compound 1b was determined following a single oral administration at 10 mg/kg and 3 mg/kg doses in 0.5% aqueous HEC (FIG. 5b).
Compounds 1b and its prodrug 6e were administered as a single dose (10 mg/kg) in 0.5% HEC using freshly prepared solution. Parent compound 1d and its prodrugs 6c and 6d were administered as a single dose of 50 mg/kg using the same vehicle. The blood was collected in prepared 5 ml syringe containing heparin via cardiac puncture and put into 15 mL conical tube on ice. Five mice were used per one time point at 0.5 h, 1 h, 2 h, 4 h, 8 h and 24 h […] plus 2 mice as a control (not-treated). The blood was then centrifuged for 5 min at 4000 rpm and plasma supernatant collected while avoiding the whole blood pellet at the bottom of the tube. The plasma was stored at −80° C. until the day of LC/MS-MS analysis.
Compound concentrations were quantitated in plasma samples by LC/MS-MS using an Agilent triple quadrupole instrument. Chromatographic separation was conducted using an Agilent HPLC with Phenomenex Kinetex C18 column (2.6 μm particle size, 50-4.6 mm i.d.) equipped with a Phenomenex Security Guard column. The mobile phase (1.25 mL/min) consisted of 0.05% formic acid in water and 0.05% formic acid in acetonitrile mixed using a linear gradient over 7 minutes. […] Plasma samples and calibration standards were prepared by protein precipitation with acetonitrile (3 parts acetonitrile to 1 part plasma), followed by centrifugation and analysis of the supernatant. Sample concentrations were determined by comparison to calibration standards prepared in blank plasma and assayed using the same conditions. The analytical lower limit of quantitation in plasma was typically 0.75-1.00 nM and accuracy, precision and recovery were within acceptable limits.
The plasma was first warmed up on ice for about 1 hour. Then 50 μL of plasma sample was precipitated with 150 μL of cold acetonitrile with internal standard (133 nM) P4Q-95^20) following by centrifugation at 4,000 rpm for 5 min at 4° C. and transfer˜150 μL of the supernatant to LCMS vial. The samples were analyzed using Agilent triple quadruple instrument in triplicates (5 mice×3 injections for each time point). The chemical structure of P4Q-95^20 is shown below:
The calibration curve for 1d was linear in 1 to 500 nM range so samples were diluted if needed to fit this linearity and then concentration recalculated accordingly. Calibration curve was run each time following the actual PK measurements and used for that particular compound.

[2] = aqueous solubility at pH 7.4; details: pH 7.4, aqueous buffer
P. berghei = details: cited from earlier work; for PO dose, single exposure radical cure: lowest single-cure dose as reported
[3] = aqueous stability and parent compound release by quantitative HPLC
Method: The stability of prodrugs in aqueous media and the release of parent compound was followed for 10 h using HPLC in triplicates.
Compound stability was assessed using quantitative HPLC in buffers at different pHs (2, 4, 7), in a simulated gastric fluid (SGF) and in a simulated intestinal fluid (SIF).

[4] = test system: multidrug resistant malarial strain W2 (pyrimethamine and chloroquine resistant); test: in vitro antimalarial activity against strain W2; assay type: cell-based; details: strains W2 and TM90-C2B, strain not specified
Excerpt: FIG. 2a depicts the synthesis of 4(1H)-quinolones 1 via Conrad-Limpach reaction^24 and conversion to first set of prodrugs (2, 3 and 4) via O-acylation.
FIG. 4a depicts the synthesis of 4(1H)-quinolones 1 into amino AOCOM ether prodrugs 6 via O-alkylation and subsequent deprotection.

[5] = 10 mg/kg PO, three daily doses days 3-5 PI, 0.5% aqueous HEC
[6] = 10 mg/kg PO, three daily doses days 3-5 PI, 0.5% aqueous HEC, untreated 13
[7] = 50 mg/kg PO, three daily doses days 3-5 PI, 0.5% aqueous HEC
[8] = single PO dose 0.01 mg/kg on day 3 PI
[9] = single PO dose 0.03 mg/kg on day 3 PI
[10] = single PO dose 0.1 mg/kg on day 3 PI
[11] = single PO dose 0.3 mg/kg on day 3 PI
[12] = single PO dose 3 mg/kg on day 3 PI
[13] = single PO dose 10 mg/kg on day 3 PI, 0.5% aqueous HEC

In the case of `COc1cc2[nH]c(C)c(-c3ccc(C(F)(F)F)cc3)c(=O)c2cc1Cl` [1d, 6-chloro-7-methoxy-2-methyl-3-(4-(trifluoromethyl)phenyl)-4(1H)-quinolone, reference compound], the “Suppression [%] day 6 PI” value (P. berghei-GFP parasites; [5]) is reported as 11%, the “Day of death (avg)” value (P. berghei-GFP parasites; [6]) is reported as 14 and the “Day of death (avg)” value (P. berghei-GFP parasites; [7]) is reported as 13. For the same molecule, the “Suppression [%] day 6 PI” value (P. berghei-GFP parasites; [7]) was 10%, the “AUC0→24” value ([1]; 50 mg/kg) was 222 µmol·min/L and the “CL” value ([1]; 50 mg/kg) was 609.7 mL·kg/min. For the same molecule, the Cmax ([1]; 50 mg/kg) was 0.36 µM, the “Vd” value ([1]; 50 mg/kg) was 377.7 L/kg and the “maximum plasma concentration of 1d” value ([1]; 50 mg/kg) was 365 nM. For the same molecule, the “t1/2 apparent” value ([1]; 50 mg/kg) was 7.15 h, the “time of maximum plasma concentration” value ([1]; 50 mg/kg) was 2 h and the “tmax” value ([1]; 50 mg/kg) was 2 h.
With `COc1cc2[nH]c(C)c(-c3ccccc3C)c(=O)c2cc1Cl` [1c, 6-chloro-7-methoxy-2-methyl-3-(o-tolyl)-4(1H)-quinolone, reference compound] the “Suppression [%] day 6 PI” value (P. berghei-GFP parasites; [5]) was 29%, the “Day of death (avg)” value (P. berghei-GFP parasites; [6]) was 13 and the “Day of death (avg)” value (P. berghei-GFP parasites; [7]) was 13. The “Suppression [%] day 6 PI” value (P. berghei-GFP parasites; [7]) was 28% and the solubility ([2]; aqueous medium at pH 7.4 (buffer not named)) was 8.7 µM (≈ 2.73 µg/mL).
For `CNCCCOC(=O)OCOc1c(-c2ccc(Oc3ccc(OC(F)(F)F)cc3)cc2F)c(C)nc2cc(OC)c(Cl)cc12.Cl` [6e, 6-Chloro-7-methoxy-2-methyl-3-(2-fluoro-4-(4-(trifluoromethoxy)phenoxy)phenyl)-4-(((3-(methylammonio)propyloxycarbonyl)oxy)methoxy)quinoline, chloride salt], the “Day of death (avg)” value (P. berghei-GFP parasites; [8]) was 13, the “Suppression [%] day 6 PI” value (P. berghei-GFP parasites; [8]) was less than 1% and the “Day of death (avg)” value (P. berghei-GFP parasites; [9]) was 13. The “Suppression [%] day 6 PI” value (P. berghei-GFP parasites; [9]) was less than 1%, the “Day of death (avg)” value (P. berghei-GFP parasites; [10]) was 13 and the “Suppression [%] day 6 PI” value (P. berghei-GFP parasites; [10]) was less than 1%. The “Day of death (avg)” value (P. berghei-GFP parasites; [11]) was 13, the “Suppression [%] day 6 PI” value (P. berghei-GFP parasites; [11]) was 57% and the “average suppression of parasitemia on day 13” value (P. berghei-GFP parasites; single PO dose 1 mg/kg) was 90%. For the same molecule, the “Suppression [%] day 6 PI” value (P. berghei-GFP parasites; single PO dose 1 mg/kg on day 3 PI) was 97%, the “Day of death (avg)” value (P. berghei-GFP parasites; single PO dose 1 mg/kg on day 3 PI, 1 mg/kg) was 21 and the “Day of death (avg)” value (P. berghei-GFP parasites; [12]) was “curative”. For the same molecule, the “Suppression [%] day 6 PI” value (P. berghei-GFP parasites; [12]) was greater than 99%, the “Day of death (avg)” value (P. berghei-GFP parasites; [13]) was “curative” and the “Suppression [%] day 6 PI” value (P. berghei-GFP parasites; [13]) was greater than 99%. The “oral dose producing single dose cures” value (P. berghei-GFP parasites; single oral dose, no advanced formulation) was 3 mg/kg, the “clearance” value [1] was “low clearance” and the half-life [1] was no less than 10 h. The “improvement in AUC vs parent” value [1] was 21 fold, the “improvement of Cmax vs parent” value [1] was 18 fold and the “AUC0→24” value ([1]; 3 mg/kg) was 4818 µmol·min/L. For the same molecule, the “Vd” value ([1]; 3 mg/kg) was 0.8 L/kg, the “tmax” value ([1]; 3 mg/kg) was 2 h and the “AUC0→24” value ([1]; 10 mg/kg) was 10269 µmol·min/L. The “CL” value ([1]; 10 mg/kg) was 1.4 mL·kg/min, the Cmax ([1]; 10 mg/kg) was 9.1 µM and the “Vd” value ([1]; 10 mg/kg) was 1.6 L/kg. For the same molecule, the “t1/2 apparent” value ([1]; 10 mg/kg) was 13.1 h and the “tmax” value ([1]; 10 mg/kg) was 4 h.
In the case of `c1cc([C@H]2CC[C@]3(CC2)OO[C@]2(O3)C3CC4CC(C3)CC2C4)ccc1OCCN1CCOCC1` [OZ439], the “single oral dose that cures P. berghei-infected mice” value (P. berghei; clinical candidate, given in combination with ferroquine in trials) is listed as 20 mg/kg and the “PO dose, single exposure radical cure” value (P. berghei) is listed as 20 mg/kg.
With `CNCCCOC(=O)OCOc1c(-c2ccc(C(F)(F)F)cc2)c(C)nc2cc(OC)c(Cl)cc12.Cl` [6d, 6-Chloro-7-methoxy-2-methyl-3-(4-(trifluoromethyl)phenyl)-4-(((3-(methylammonio)propyloxycarbonyl)oxy)methoxy)quinoline, chloride salt] the “Suppression [%] day 6 PI” value (P. berghei-GFP parasites; [5]) was 82%, the “Day of death (avg)” value (P. berghei-GFP parasites; [6]) was 13 and the “Day of death (avg)” value (P. berghei-GFP parasites; [7]) was 14. For the same molecule, the “Suppression [%] day 6 PI” value (P. berghei-GFP parasites; [7]) was 96%, the “life span of treated animals relative to untreated controls” value (P. berghei-GFP parasites; 10 and 50 mg/kg PO) was “do not significantly extend the life span” and the “AUC0→24” value ([1]; 50 mg/kg) was 11664 µmol·min/L. For the same molecule, the “AUC of 1d improved vs dosing of 1d” value ([1]; 50 mg/kg) was 52 fold, the “CL” value ([1]; 50 mg/kg) was 7.8 mL·kg/min and the Cmax ([1]; 50 mg/kg) was 21.2 µM. The “Vd” value ([1]; 50 mg/kg) was 4.3 L/kg, the “t1/2 apparent” value ([1]; 50 mg/kg) was 6.4 h and the “tmax” value ([1]; 50 mg/kg) was 1 h. The “aqueous stability” value ([3]; buffers pH 2, 4, 7, SGF, SIF) was “stable at low pH values; also recorded: more stable than 6c” and the parent compound released ([3]; in 5 h at pH 7.0, parent 1d) was greater than 55%.
For `CCN(CC)C(=O)Oc1c(-c2ccccc2C)c(C)nc2cc(OC)c(Cl)cc12` [2a], the “EC50 values fold higher than reference 4(1H)-quinolone 1c” value [4] was 300 fold, the “in vitro antimalarial activity / EC50 values relative to 1c” value [4] was “lacked in antimalarial activity” and the solubility [2] was less than 1 µM.
In the case of `CS(=O)(=O)c1ccc(-c2cnc(N)c(-c3ccc(C(F)(F)F)nc3)c2)cc1` [MMV390048], the “PO dose, single exposure radical cure” value (P. berghei) is listed as 30 mg/kg.
